The values below are quoted from earlier work in patent US20160168384A1, “PORPHYRINOID COMPONENTS, METHOD AND APPARATUS FOR WATER PHOTODISINFECTION” (NIMARTECH LIMITED, priority 2013, published 2016).

The subject of this data set is faecal coliforms. To be noted: wastewater; micromolar porphyrin; visible light or sunlight, about 4 hours.

In the case of `C[n+]1ccc(-c2c3nc(c(-c4cc[n+](C)cc4)c4ccc([nH]4)c(-c4cc[n+](C)cc4)c4nc(c(-c5cc[n+](C)cc5)c5ccc2[nH]5)C=C4)C=C3)cc1` [Sample C1, meso-tetra(N,N,N,N-methyl-pyridyl)porphine], the “decrease of coliform counts” value was “at least 5 logs”.
